The text below walks through data of ChEMBL document CHEMBL4417627, “Dab2 inhibitors for the prevention and treatment of cystic fibrosis” (2017).

Holding throughout (format): cell-based
A short description of series [1]: Toxicity in human CFBE cells assessed as reduction in cell viability incubated for 12 hrs by LDH assay.
The nature of series [2]: Toxicity in human CFBE cells assessed as reduction in cell viability incubated for 3 hrs by LDH assay.
A short description of series [3]: Toxicity in human CFBE cells assessed as reduction in cell viability at 100 uM incubated for 3 hrs by LDH assay relative to control 1% triton.
Series [4] is described as follows: Toxicity in human CFBE cells assessed as reduction in cell viability at 5 to 100 uM incubated for 3 hrs by MTT assay. A general note: Tetrazolium assays rely on reduction of a dye to a coloured formazan, in cell work by metabolically active cells.
The nature of series [5]: Toxicity in human CFBE cells assessed as reduction in cell viability at 5 to 100 uM incubated for 12 hrs by MTT assay.
The nature of series [6]: Toxicity in human CFBE cells assessed as reduction in cell viability at 40 uM incubated for 24 hrs by LDH assay relative to control 1% triton.

With `CC1(C)Cc2ccccc2-c2n[nH]c(=S)n21`, the Activity result is given as “Toxic” in series [1]; “Non-Toxic” in series [2]; “<= 10%” in series [3]; “Non-Toxic” in series [4]; “Non-Toxic” in series [5].

For the compound `CN1CCc2cccc3c2[C@@H]1Cc1ccc(O)c(O)c1-3.Cl`, the Activity result in series [1] is “Dose-dependent effect”; in series [2], “Dose-dependent effect”; in series [4], “Non-Toxic”; in series [5], “Non-Toxic”.

In the case of `C[C@]12CC[C@@H]3c4cc(O)c(O)cc4CC[C@H]3[C@@H]1CC[C@@H]2O`, the Activity result in series [1] is “Dose-dependent effect”; in series [2], “Dose-dependent effect”; in series [6], 20 to 40%; in series [4], “Non-Toxic”; in series [5], “Non-Toxic”.
